The test system of assay [1] is cancer cell lines that contain different RAS mutations. As to the kind of experiment: Average sensitivity of cancer cell line panel by RAS mutation status. Type of assay: cell-based. The method, then:
Inhibitory effects of embelin on KRAS-mutant and wild-type cells are listed in Supplementary Table S7.
For the adherent cell viability assay, cells in the logarithmic growth phase were seeded in 96-well culture plates at a density of 5×103 well-1 and incubated overnight. Diluted compounds or DMSO were added, or specific treatments were incubated at 37 °C and 5% CO2 for 24 h or 48 h. Cell viability was determined using CCK-8 or CellLightTM Cell Viability Assay Kit, according to the manufacturer's protocol. The luminescence signals of the treated samples were normalized to those of the DMSO group. […]

Assay [2] addresses T1, His‐ΔSHP2 (Homo sapiens, UniProt Q06124).
T1 construct: His‐ΔSHP2, encompassing the peptide from amino acids 205–593 retaining PTP activity; His; made in house; host or cells: E. coli
T1 sequence (Q06124 205-593): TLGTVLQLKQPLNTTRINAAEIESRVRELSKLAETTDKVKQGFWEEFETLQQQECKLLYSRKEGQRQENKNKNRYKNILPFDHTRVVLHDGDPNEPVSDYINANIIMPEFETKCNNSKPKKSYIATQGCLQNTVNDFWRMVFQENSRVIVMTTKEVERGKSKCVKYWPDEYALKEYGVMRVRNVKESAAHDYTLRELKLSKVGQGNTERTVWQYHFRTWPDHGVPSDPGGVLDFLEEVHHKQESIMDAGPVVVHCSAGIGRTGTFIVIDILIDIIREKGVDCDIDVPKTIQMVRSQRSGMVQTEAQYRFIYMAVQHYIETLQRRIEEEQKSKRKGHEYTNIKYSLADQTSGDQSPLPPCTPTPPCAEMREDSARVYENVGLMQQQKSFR
As to the kind of experiment: Isothermal titration calorimetry. Format: binding. To be noted: read-out: KD value (ITC). On the procedure: The purified His‐ΔSHP2, His‐SHP2, or His‐ΔSHP2^K325A proteins were dialyzed overnight in dialysis buffer (20 mM HEPES, 0.15 M NaCl, 1 mM TCEP, 10% glycerol, pH 7.5). The protein concentration was determined using the BCA Protein Assay Kit, and the purity of the proteins was detected by Coomassie Brilliant Blue staining. ITC experiments were performed when the protein concentration was higher than 2 mg mL^−1 and the purity was greater than 90%. The instrument (Malvern Instruments, USA) was considered to be functioning optimally for compound and protein titration experiments when the DP value was < 0.05 µcal s^−1 by the water droplet experiment. After the sample cell was cleaned twice with protein dialysis buffer, a protein sample (300 µL) was loaded to the sample cell, an equal amount of ultrapure water was added to the reference cell, and the compound solution dissolved with the same dialysis buffer was put into the corresponding cell, in which the protein‐compound molar ratio was 1:10–1:20. The parameters were adjusted based on the curve‐fitting results to determine the optimal binding concentration gradient. Based on the exothermic changes in the reaction, the entropy increase and enthalpy change were analyzed using software fitting to obtain parameters such as the binding coefficient and affinity constant between the small molecules and proteins.

Assay [3] has as its target T1, His‐ΔSHP2. The assay can be described thus: Enzymatic inhibition analysis (Michaelis-Menten, Lineweaver-Burk). Format: biochemical. The method, then: A Michaelis‐Menten model and Lineweaver‐Burk plot of SHP2 inhibition by embelin were established. In brief, enzyme kinetics of SHP2 varied with the concentrations of substrate DiFMUP and embelin, concentrations of embelin were selected at 0, 10, and 20 µM, and concentrations of DiFMUP were selected at 10, 20, 40, 80, and 160 µM. Recombinant His‐ΔSHP2 was preincubated for 30 min with embelin or DMSO at various concentrations in the absence of substrate and then assayed for enzymatic activity at different times as mentioned above.

[4] abbreviates: embelin 0, 10, 20 µM, DiFMUP 10-160 µM.

One may read the IC50 as the concentration needed to halve the response being measured. The term Kd denotes the constant that tells how readily two partners part at equilibrium. Turning to `CCCCCCCCCCCC1=C(O)C(=O)C=C(O)C1=O` [Embelin], the IC50 is 44 µM in assay [1] (HRAS mutants), 19.6 µM in assay [1] (NRAS mutant strain), 30.8 µM in assay [1] (RAS wild‐type cell lines) and 16.9 µM in assay [1] (cell lines with KRAS mutations). Moreover, at His‐ΔSHP2 [2], the Kd was 0.22 µM. Further, the “type of inhibition of SHP2” value on His‐ΔSHP2 [3] is given as “noncompetitive inhibitor”. Also, the “Km of ΔSHP2 protein after addition of compound” value at His‐ΔSHP2 [3] (setting [4]) was “unchanged”. Also, the “Vm of ΔSHP2 protein after addition of compound” value on His‐ΔSHP2 [3] (setting [4]) is “decreased”.

Values taken from PMC12005787, “Synthetic Lethality of SHP2 and XIAP Suppresses Proliferation and Metastasis in KRAS‐mutant Nonsmall Cell Lung Cancer” (Advanced Science, 2025).
